Laboratory results: patent publication US20120245137A1 (Zalicus Pharmaceuticals Ltd., priority 2009, published 2012)

Key:
[1] = target: human α1G T-type channels (Homo sapiens, UniProt O43497); assay: T-type calcium channel block, whole cell patch clamp, α1G; assay type: cell-based; conditions: HEK cells stably expressing human α1G; mainly non-inactivated protocol; values above 10,000 nM represented as 10000
Outline: (§1)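 Blockade of T-type current was measured in human α1G- or α1H-expressing HEK 293 cells using whole-cell recording with ~5 MΩ pipettes. Test compounds, dissolved in external solution containing 0.1-0.01% DMSO, were applied close to the cell, and block was examined under both non-inactivating and inactivating voltage protocols.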

[2] = target: human α1H T-type channels (Homo sapiens, UniProt O95180); assay: T-type calcium channel block, whole cell patch clamp, α1H; assay type: cell-based; conditions: HEK cells stably expressing human α1H; mainly non-inactivated protocol; values above 10,000 nM represented as 10000
Outline: as §1

Sequence of human α1H T-type channels (O95180 whole entry): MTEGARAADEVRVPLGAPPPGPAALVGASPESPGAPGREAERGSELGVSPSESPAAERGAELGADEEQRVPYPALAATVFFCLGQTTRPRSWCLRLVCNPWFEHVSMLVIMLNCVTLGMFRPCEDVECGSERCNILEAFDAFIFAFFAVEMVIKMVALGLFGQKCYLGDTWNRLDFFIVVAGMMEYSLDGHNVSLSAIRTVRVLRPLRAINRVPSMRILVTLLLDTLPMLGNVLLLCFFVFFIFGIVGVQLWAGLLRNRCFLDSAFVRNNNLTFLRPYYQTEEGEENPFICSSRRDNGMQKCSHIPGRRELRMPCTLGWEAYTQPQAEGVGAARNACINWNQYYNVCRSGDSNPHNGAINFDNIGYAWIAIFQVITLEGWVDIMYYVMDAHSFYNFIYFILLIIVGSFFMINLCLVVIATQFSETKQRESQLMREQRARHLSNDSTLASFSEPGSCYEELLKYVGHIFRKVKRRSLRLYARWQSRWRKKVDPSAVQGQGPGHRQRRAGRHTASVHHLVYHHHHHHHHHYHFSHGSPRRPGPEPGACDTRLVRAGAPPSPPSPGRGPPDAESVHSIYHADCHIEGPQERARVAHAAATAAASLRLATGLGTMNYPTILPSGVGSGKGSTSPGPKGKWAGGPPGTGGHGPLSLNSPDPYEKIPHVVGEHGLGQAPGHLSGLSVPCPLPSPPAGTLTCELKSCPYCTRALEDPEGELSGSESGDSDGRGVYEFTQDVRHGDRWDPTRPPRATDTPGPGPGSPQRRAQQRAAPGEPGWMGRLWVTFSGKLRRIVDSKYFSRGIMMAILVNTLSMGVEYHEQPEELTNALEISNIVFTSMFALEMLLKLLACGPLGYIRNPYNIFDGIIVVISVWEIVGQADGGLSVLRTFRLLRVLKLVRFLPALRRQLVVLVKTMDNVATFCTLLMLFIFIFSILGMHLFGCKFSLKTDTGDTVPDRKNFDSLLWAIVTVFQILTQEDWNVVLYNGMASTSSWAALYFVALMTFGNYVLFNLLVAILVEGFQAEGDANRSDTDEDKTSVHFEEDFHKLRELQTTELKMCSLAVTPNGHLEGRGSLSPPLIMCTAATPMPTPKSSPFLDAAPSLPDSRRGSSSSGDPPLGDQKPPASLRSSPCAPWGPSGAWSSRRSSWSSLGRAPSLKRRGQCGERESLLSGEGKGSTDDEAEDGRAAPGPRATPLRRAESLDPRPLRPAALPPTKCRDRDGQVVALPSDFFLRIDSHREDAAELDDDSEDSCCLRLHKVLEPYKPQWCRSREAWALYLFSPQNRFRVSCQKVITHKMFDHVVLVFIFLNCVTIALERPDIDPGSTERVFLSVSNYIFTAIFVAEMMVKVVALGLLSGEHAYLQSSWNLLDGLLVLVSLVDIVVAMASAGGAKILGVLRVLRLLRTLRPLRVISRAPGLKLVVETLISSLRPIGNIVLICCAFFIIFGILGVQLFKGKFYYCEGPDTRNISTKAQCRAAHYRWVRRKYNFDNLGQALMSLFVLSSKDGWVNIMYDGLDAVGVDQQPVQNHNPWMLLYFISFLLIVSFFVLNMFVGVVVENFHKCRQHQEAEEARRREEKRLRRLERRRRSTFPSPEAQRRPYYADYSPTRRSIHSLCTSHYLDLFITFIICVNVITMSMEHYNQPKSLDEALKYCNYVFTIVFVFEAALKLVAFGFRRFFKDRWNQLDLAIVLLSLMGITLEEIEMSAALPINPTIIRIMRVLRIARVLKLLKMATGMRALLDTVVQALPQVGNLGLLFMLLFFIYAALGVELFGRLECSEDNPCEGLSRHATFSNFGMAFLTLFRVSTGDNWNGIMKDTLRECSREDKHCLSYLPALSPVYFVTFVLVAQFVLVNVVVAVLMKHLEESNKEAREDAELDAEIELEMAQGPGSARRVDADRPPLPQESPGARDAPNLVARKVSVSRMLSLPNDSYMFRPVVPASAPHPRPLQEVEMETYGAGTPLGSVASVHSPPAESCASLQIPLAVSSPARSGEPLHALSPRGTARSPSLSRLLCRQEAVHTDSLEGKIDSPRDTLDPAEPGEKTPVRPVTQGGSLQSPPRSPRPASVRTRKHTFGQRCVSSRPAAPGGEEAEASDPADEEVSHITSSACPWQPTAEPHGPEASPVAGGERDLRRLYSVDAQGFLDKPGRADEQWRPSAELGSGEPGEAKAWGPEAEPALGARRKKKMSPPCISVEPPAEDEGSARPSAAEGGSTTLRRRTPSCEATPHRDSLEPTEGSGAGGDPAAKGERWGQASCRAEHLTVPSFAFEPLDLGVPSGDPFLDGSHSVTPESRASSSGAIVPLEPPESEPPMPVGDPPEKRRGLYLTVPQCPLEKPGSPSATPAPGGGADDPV
Sequence of human α1G T-type channels (O43497 whole entry): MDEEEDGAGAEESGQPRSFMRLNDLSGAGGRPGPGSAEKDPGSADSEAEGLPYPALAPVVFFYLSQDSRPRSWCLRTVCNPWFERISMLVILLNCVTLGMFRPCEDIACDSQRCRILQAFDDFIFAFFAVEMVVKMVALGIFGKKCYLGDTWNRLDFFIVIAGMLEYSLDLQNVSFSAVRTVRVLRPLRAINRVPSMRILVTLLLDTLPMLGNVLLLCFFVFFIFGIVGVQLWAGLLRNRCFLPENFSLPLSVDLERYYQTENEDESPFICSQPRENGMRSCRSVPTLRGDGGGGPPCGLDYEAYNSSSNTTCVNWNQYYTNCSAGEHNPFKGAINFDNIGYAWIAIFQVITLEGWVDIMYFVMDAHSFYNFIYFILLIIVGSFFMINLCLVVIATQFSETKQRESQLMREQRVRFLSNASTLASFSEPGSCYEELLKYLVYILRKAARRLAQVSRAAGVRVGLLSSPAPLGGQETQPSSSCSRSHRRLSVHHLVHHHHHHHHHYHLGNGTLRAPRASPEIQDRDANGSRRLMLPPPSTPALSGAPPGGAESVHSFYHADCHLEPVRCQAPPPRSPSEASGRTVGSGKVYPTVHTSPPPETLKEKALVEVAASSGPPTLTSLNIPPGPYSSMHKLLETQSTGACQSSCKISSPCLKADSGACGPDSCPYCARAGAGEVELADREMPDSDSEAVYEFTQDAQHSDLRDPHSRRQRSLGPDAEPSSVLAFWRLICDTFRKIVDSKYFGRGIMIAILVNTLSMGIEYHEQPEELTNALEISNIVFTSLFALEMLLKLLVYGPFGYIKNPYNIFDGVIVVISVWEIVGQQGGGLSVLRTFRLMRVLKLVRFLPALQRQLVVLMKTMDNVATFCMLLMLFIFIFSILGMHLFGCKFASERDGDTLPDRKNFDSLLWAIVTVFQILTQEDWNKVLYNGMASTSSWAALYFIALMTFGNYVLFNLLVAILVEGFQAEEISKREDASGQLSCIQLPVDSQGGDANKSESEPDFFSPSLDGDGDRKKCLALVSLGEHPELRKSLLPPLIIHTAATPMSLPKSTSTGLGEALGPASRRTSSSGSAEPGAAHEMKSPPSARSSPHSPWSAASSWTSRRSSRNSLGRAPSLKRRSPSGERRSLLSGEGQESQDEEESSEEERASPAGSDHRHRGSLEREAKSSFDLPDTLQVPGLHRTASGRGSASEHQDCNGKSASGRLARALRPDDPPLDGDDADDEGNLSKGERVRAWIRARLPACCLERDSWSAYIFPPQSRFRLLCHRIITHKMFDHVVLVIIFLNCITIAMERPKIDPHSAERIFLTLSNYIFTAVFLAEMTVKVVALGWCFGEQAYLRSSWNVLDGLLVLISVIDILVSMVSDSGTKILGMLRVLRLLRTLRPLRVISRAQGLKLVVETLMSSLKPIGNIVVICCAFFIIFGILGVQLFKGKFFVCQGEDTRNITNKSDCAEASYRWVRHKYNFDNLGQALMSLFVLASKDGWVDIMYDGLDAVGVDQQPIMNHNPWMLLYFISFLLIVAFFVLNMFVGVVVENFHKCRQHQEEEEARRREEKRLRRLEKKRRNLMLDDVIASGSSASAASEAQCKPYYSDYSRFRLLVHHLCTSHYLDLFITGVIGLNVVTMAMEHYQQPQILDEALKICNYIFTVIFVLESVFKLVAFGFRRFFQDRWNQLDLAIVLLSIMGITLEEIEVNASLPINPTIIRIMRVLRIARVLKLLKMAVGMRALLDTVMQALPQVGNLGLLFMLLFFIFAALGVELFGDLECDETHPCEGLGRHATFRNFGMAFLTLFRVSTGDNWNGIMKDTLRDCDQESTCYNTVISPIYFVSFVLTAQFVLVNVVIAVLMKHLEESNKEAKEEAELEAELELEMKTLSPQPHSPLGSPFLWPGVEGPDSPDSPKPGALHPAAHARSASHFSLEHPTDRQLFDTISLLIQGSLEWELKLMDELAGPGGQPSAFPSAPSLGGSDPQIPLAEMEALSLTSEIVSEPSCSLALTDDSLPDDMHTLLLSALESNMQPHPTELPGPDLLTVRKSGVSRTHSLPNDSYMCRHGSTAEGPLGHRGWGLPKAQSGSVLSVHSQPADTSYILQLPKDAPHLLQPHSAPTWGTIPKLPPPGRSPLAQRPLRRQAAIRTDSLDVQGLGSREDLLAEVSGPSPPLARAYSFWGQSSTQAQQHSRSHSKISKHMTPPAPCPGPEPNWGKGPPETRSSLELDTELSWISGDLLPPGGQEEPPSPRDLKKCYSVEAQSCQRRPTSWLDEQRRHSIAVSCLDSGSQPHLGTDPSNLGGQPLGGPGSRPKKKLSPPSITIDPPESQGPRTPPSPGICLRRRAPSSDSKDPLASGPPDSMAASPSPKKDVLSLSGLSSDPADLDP

IC50 [1] | IC50 [2] | SMILES
540 nM | > 10000 nM | CC(C)(C)C(=O)Nc1ccncc1C(=O)NCC(C)(C)S(=O)(=O)c1cccc(C(F)(F)F)c1 [Compound 477, N-(2-methyl-2-(3-(trifluoromethyl)phenylsulfonyl)propyl)-4-pivalamidonicotinamide]
270 nM | 5340 nM | CC(C)(CNC(=O)c1nc2cc(F)ccc2[nH]1)S(=O)(=O)c1cccc(C(F)(F)F)c1 [Compound 478, 5-fluoro-N-(2-methyl-2-(3-(trifluoromethyl)phenylsulfonyl)propyl)-1H-benzo[d]imidazole-2-carboxamide]
900 nM | 2090 nM | CC(C)(CNC(=O)c1ccc(Cl)c(Cl)c1)S(=O)(=O)c1cccc(C(F)(F)F)c1 [Compound 479, 3,4-dichloro-N-(2-methyl-2-(3-(trifluoromethyl)phenylsulfonyl)propyl) benzamide]
720 nM | 5440 nM | CC(C)(CNC(=O)c1ccc(Cl)cc1Cl)S(=O)(=O)c1cccc(C(F)(F)F)c1 [Compound 480, 2,4-dichloro-N-(2-methyl-2-(3-(trifluoromethyl)phenylsulfonyl)propyl) benzamide]
720 nM | > 10000 nM | COc1c(C)cc(C(=O)NCC(C)(C)S(=O)(=O)c2cccc(C(F)(F)F)c2)cc1C [Compound 481, 4-methoxy-3,5-dimethyl-N-(2-methyl-2-(3-(trifluoromethyl)phenylsulfonyl)propyl) benzamide]
960 nM | 3690 nM | CC(C)(CNC(=O)c1ccc(F)c(Cl)c1)S(=O)(=O)c1cccc(C(F)(F)F)c1 [Compound 482, 3-chloro-4-fluoro-N-(2-methyl-2-(3-(trifluoromethyl)phenylsulfonyl)propyl) benzamide]
900 nM | 3850 nM | CC(C)(CNC(=O)c1ccc(OCC(F)(F)F)nc1)S(=O)(=O)c1cccc(C(F)(F)F)c1 [Compound 483, N-(2-methyl-2-(3-(trifluoromethyl)phenylsulfonyl)propyl)-6-(2,2,2-trifluoroethoxy) nicotinamide]
530 nM | 6690 nM | CC(C)(C)c1cc(C(=O)NCC(C)(C)S(=O)(=O)c2cccc(C(F)(F)F)c2)ccn1 [Compound 484, 2-tert-butyl-N-(2-methyl-2-(3-(trifluoromethyl)phenylsulfonyl)propyl) isonicotinamide]
510 nM | 860 nM | CC(C)(CC(=O)Nc1ccc(Oc2ccc(F)cc2)cc1)S(=O)(=O)c1cccc(C(F)(F)F)c1 [Compound 486, N-(4-(4-fluorophenoxy)phenyl)-3-methyl-3-(3-(trifluoromethyl)phenylsulfonyl)butanamide]
210 nM | 3310 nM | CC(C)(C(=O)Nc1ccc(Oc2ccccc2)cc1)S(=O)(=O)c1cccc(C(F)(F)F)c1 [Compound 487, 2-methyl-N-(4-phenoxyphenyl)-2-(3-(trifluoromethyl)phenylsulfonyl)propanamide]
290 nM | 2880 nM | CC(C)(C(=O)Nc1ccc(Oc2ccc(F)cc2)cc1)S(=O)(=O)c1cccc(C(F)(F)F)c1 [Compound 488, N-(4-(4-fluorophenoxy)phenyl)-2-methyl-2-(3-(trifluoromethyl)phenylsulfonyl)propanamide]
460 nM | > 10000 nM | CC(C)(CNS(=O)(=O)c1cccc2nsnc12)S(=O)(=O)c1cccc(C(F)(F)F)c1 [Compound 490]
470 nM | > 10000 nM | CC(C)(CNS(=O)(=O)c1cccc2cccnc12)S(=O)(=O)c1cccc(C(F)(F)F)c1 [Compound 491, N-(2-methyl-2-(3-(trifluoromethyl)phenylsulfonyl)propyl)quinoline-8-sulfonamide]
590 nM | 9260 nM | CC(C)(CNS(=O)(=O)c1ccc2c(c1)NC(=O)CO2)S(=O)(=O)c1cccc(C(F)(F)F)c1 [Compound 492, N-(2-methyl-2-(3-(trifluoromethyl)phenylsulfonyl)propyl)-3-oxo-3,4-dihydro-2H-benzo[b][1,4]oxazine-6-sulfonamide]
400 nM | 3530 nM | CC(C)(CNS(=O)(=O)c1ccccc1C(F)(F)F)S(=O)(=O)c1cccc(C(F)(F)F)c1 [Compound 494, N-(2-methyl-2-(3-(trifluoromethyl)phenylsulfonyl)propyl)-2-(trifluoromethyl) benzenesulfonamide]
190 nM | 2050 nM | CC(C)(CNS(=O)(=O)c1cccc(C(F)(F)F)c1)S(=O)(=O)c1cccc(C(F)(F)F)c1 [Compound 495, N-(2-methyl-2-(3-(trifluoromethyl)phenylsulfonyl)propyl)-3-(trifluoromethyl) benzenesulfonamide]

IC50 [1] | IC50 [2] | SMILES
170 nM | 350 nM | CC(C)(CNS(=O)(=O)c1ccc(OC(F)(F)F)cc1)S(=O)(=O)c1cccc(C(F)(F)F)c1 [Compound 496, N-(2-methyl-2-(3-(trifluoromethyl)phenylsulfonyl)propyl)-4-(trifluoromethoxy) benzenesulfonamide]
260 nM | 1380 nM | CC(C)(CNS(=O)(=O)c1ccc(C(F)(F)F)cc1Cl)S(=O)(=O)c1cccc(C(F)(F)F)c1 [Compound 498, 2-chloro-N-(2-methyl-2-(3-(trifluoromethyl)phenylsulfonyl)propyl)-4-(trifluoromethyl) benzenesulfonamide]
90 nM | 1010 nM | CC(C)(C)c1ccc(S(=O)(=O)NCC(C)(C)S(=O)(=O)c2cccc(C(F)(F)F)c2)cc1 [Compound 499, 4-tert-butyl-N-(2-methyl-2-(3-(trifluoromethyl)phenylsulfonyl)propyl) benzenesulfonamide]
340 nM | 3110 nM | CC(C)(CNS(=O)(=O)c1ccc2c(c1)OCO2)S(=O)(=O)c1cccc(C(F)(F)F)c1 [Compound 500, N-(2-methyl-2-(3-(trifluoromethyl)phenylsulfonyl)propyl)benzo[d] [1,3]dioxole-5-sulfonamide]
420 nM | > 10000 nM | CC(C)(CNS(=O)(=O)c1ccc2ncsc2c1)S(=O)(=O)c1cccc(C(F)(F)F)c1 [Compound 501, N-(2-methyl-2-(3-(trifluoromethyl)phenylsulfonyl)propyl)benzo [d]thiazole-6-sulfonamide]
190 nM | 2810 nM | CC(C)(C(=O)Nc1ccc(Oc2ccc(F)cc2)nc1)S(=O)(=O)c1cccc(C(F)(F)F)c1 [Compound 503, N-(6-(4-fluorophenoxy)pyridin-3-yl)-2-methyl-2-(3-(trifluoromethyl)phenylsulfonyl)propanamide]
610 nM | 9930 nM | CC(C)(CNC(=O)c1cn2ccc(C(F)(F)F)cc2n1)S(=O)(=O)c1cccc(C(F)(F)F)c1 [Compound 505, N-(2-methyl-2-(3-(trifluoromethyl)phenylsulfonyl)propyl)-7-(trifluoromethyl)imidazo[1,2-a]pyridine-2-carboxamide]
290 nM | 640 nM | CC(C)(CCNC(=O)c1ccc(Oc2ccc(Cl)cc2)cc1)S(=O)(=O)c1cccc(C(F)(F)F)c1 [Compound 506, 4-(4-chlorophenoxy)-N-(3-methyl-3-(3-(trifluoromethyl)phenylsulfonyl)butyl) benzamide]
380 nM | 8300 nM | CC(C)(CCNC(=O)c1cn2ccc(C(F)(F)F)cc2n1)S(=O)(=O)c1cccc(C(F)(F)F)c1 [Compound 507, N-(3-methyl-3-(3-(trifluoromethyl)phenylsulfonyl)butyl)-7-(trifluoromethyl)imidazo[1,2-a]pyridine-2-carboxamide]
170 nM | 5870 nM | CN(CCC(C)(C)S(=O)(=O)c1cccc(C(F)(F)F)c1)C(=O)c1ccc(F)c(C(F)(F)F)c1 [Compound 510, 4-fluoro-N-methyl-N-(3-methyl-3-(3-(trifluoromethyl)phenylsulfonyl)butyl)-3-(trifluoromethyl)benzamide]
330 nM | > 10000 nM | COc1cc(C(=O)N(C)CCC(C)(C)S(=O)(=O)c2cccc(C(F)(F)F)c2)cc(Cl)n1 [Compound 512, 2-chloro-6-methoxy-N-methyl-N-(3-methyl-3-(3-(trifluoromethyl)phenylsulfonyl)butyl) isonicotinamide]
490 nM | > 10000 nM | CN(CCC(C)(C)S(=O)(=O)c1cccc(C(F)(F)F)c1)C(=O)c1cc(C(F)(F)F)n[nH]1 [Compound 513, N-methyl-N-(3-methyl-3-(3-(trifluoromethyl)phenylsulfonyl)butyl)-3-(trifluoromethyl)-1H-pyrazole-5-carboxamide]
840 nM | > 10000 nM | CN(CCC(C)(C)S(=O)(=O)c1cccc(C(F)(F)F)c1)C(=O)c1cn2ccc(C(F)(F)F)cc2n1 [Compound 514, N-methyl-N-(3-methyl-3-(3-(trifluoromethyl)phenylsulfonyl)butyl)-7-(trifluoromethyl)imidazo[1,2-a]pyridine-2-carboxamide]
620 nM | > 10000 nM | CN(CCC(C)(C)S(=O)(=O)c1cccc(C(F)(F)F)c1)CC(=O)NC(C)(C)C [Compound 516, N-tert-butyl-2-(methyl(3-methyl-3-(3-(trifluoromethyl)phenylsulfonyl)butyl)amino)acetamide]
170 nM | 6140 nM | CC(C)(CN[C@H]1CC[C@H](C(F)(F)F)CC1)S(=O)(=O)c1cccc(C(F)(F)F)c1 [Compound 517, (1R,4R)-N-(2-methyl-2-(3-(trifluoromethyl)phenylsulfonyl)propyl)-4-(trifluoromethyl)cyclo hexanamine]

SMILES | IC50 [1] | IC50 [2]
CC(C)(C)Oc1ccc(CNC(=O)C(C)(C)S(=O)(=O)c2cccc(C(F)(F)F)c2)cc1 [Compound 502, N-(4-tert-butoxybenzyl)-2-methyl-2-(3-(trifluoromethyl)phenylsulfonyl)propanamide] | 360 nM | 3060 nM
